The source of these data is US7943770B2, “Fused quinoline derivative and use thereof” (Takeda Pharmaceutical Company Limited, priority 2004, dated 2011).

Structures can show the parent of a compound that is named as a salt. Some results are limits rather than exact numbers.

The target of this test is T1, hNK2 receptor (Homo sapiens, UniProt P21452).
T1 construct: host or cells: CHO cells
T1 sequence (P21452 1-398): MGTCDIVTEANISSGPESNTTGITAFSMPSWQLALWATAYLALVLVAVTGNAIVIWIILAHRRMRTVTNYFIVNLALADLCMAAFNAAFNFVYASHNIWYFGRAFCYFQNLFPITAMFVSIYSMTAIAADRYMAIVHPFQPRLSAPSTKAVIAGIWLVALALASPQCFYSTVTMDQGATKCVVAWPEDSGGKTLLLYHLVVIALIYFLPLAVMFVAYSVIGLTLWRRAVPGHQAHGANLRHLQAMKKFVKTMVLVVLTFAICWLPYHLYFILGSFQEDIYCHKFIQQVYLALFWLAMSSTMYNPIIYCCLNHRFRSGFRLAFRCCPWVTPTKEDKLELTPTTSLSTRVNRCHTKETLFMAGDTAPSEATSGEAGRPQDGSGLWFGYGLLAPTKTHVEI
Description: Radio-ligand ([125I]-NKA) receptor binding inhibitory activity using membrane fraction of hNK2 receptor-expressing CHO cell. As to conditions: membrane fraction of hNK2 receptor-expressing CHO cells, 25° C., 30 min. The procedure:
hNK2 receptor-expressing CHO cells (produced by EUROSCREEN) were cultured in HAM-F12 medium containing 400 μg/ml Geneticin, 100 U/mL penicillin, 100 μg/mL streptomycin and 10% inactivated serum. The medium was removed and adhered cells were washed with PBS, and PBS containing 5 mM EDTA was added to detach the cells from the flask. The cells were recovered by centrifugation, suspended in suspending buffer A (15 mM Tris-HCl (pH 7.5), 2 mM MgCl2, 0.3 mM EDTA, 1 mM EGTA), disrupted by POLYTRON homogenizer (manufactured by KINEMATICA) and centrifuged at 800×g for 10 min. The supernatant was recovered and ultracentrifuged at 100000×g for 25 min. The precipitated fraction was suspended in suspending buffer B (7.5 mM Tris-HCl (pH 7.5), 12.5 mM MgCl2, 0.3 mM EDTA, 1 mM, […], 250 mM Sucrose) and cryopreserved (at −80° C.) as a receptor specimen.
An assay buffer (50 μl, 50 mM Tris-HCl (pH 7.4), 0.02% bovine serum albumin, 2 μg/mL chymostatin, 40 μg/mL bacitracin, 40 μg/mL APMSF, 3 mM MnCl2) was added to a 96 well microassay plate. Thereto was added a 20 μg/mL membrane specimen suspended in the assay buffer (50 μL). An assay buffer (50 μL) containing 2% dimethyl sulfoxide was added to examine the total binding, 4 unlabeled NKA (produced by Peptide Institute, Inc.) solution (50 μL) diluted with an assay buffer containing 2% dimethyl sulfoxide was added to examine non-specific binding, and a test compound diluted with an assay buffer (50 containing 2% dimethyl sulfoxide) was added to examine the binding inhibitory activity of the test compound. Furthermore, […] [^125I]-NKA (produced by Amersham Biosciences) solution (50 μL) was added to each well.
After reaction at 25° C. for 30 min., the reaction was stopped by rapid filtration on a unifilter plate (GF/C) (manufactured by PerkinElmer) using a cell harvester (manufactured by PerkinElmer) and the cells were washed 5 times with 50 mM Tris-HCl (pH 7.4) buffer containing 0.02% bovine serum albumin (250 μL). The GF/C filter plate was dried and 20 μl, of MicroScinti-O (manufactured by PerkinElmer) was added and the radioactivity was measured in Topcount (manufactured by PerkinElmer). The GF/C filter plate, which had been immersed in 0.3% polyethyleneimine for one day, was used. Specific binding is shown by the value obtained by subtracting non-specific binding from the total binding. The binding inhibitory activity of the test compound is shown by the ratio of the value obtained by subtracting the measured value associated with the addition of the test compound from the total binding, to the value of the specific binding.
Compound `O=C(N[C@@H]1CCCC[C@@H]1C(=O)N1CC[C@@H]2[C@H](c3ccccc3)Nc3ccccc3[C@@H]21)c1ccccc1` (relative stereo) [Example 1, N-((1R,2S)-2-{[(3aR*,4R*,9bR*)-4-Phenyl-2,3,3a,4,5,9b-hexahydro-1H-pyrrolo[3,2-c]quinolin-1-yl]carbonyl}cyclohexyl)benzamide] returned a 50% inhibitory concentration (IC50) of under 10 nM.

`O=C(N[C@@H]1CCCC[C@@H]1C(=O)N1CC[C@@H]2[C@H](c3ccccc3)Nc3cc(F)ccc3[C@@H]21)c1ccccc1` (relative stereo) [Example 6, N-((1R,2S)-2-{[(3aR*,4R*,9bR*)-7-Fluoro-4-phenyl-2,3,3a,4,5,9b-hexahydro-1H-pyrrolo[3,2-c]quinolin-1-yl]carbonyl}cyclohexyl)benzamide] gave a concentration for half-maximal inhibition (IC50) of under 10 nM.

For `O=C(N[C@@H]1CCCC[C@@H]1C(=O)N1CC[C@@H]2[C@H](c3ccccc3)Nc3cc(Cl)ccc3[C@@H]21)c1ccccc1` (relative stereo) [Example 7, N-((1R,2S)-2-{[(3aR*,4R*,9bR*)-7-Chloro-4-phenyl-2,3,3a,4,5,9b-hexahydro-1H-pyrrolo[3,2-c]quinolin-1-yl]carbonyl}cyclohexyl)benzamide], the IC50 was under 10 nM.

On to `O=C(N[C@@H]1CCCC[C@@H]1C(=O)N1CC[C@@H]2[C@H](c3ccccc3)Nc3c(F)cccc3[C@@H]21)c1ccccc1` (relative stereo) [Example 8, N-((1R,2S)-2-{[(3aR*,4R*,9bR*)-6-Fluoro-4-phenyl-2,3,3a,4,5,9b-hexahydro-1H-pyrrolo[3,2-c]quinolin-1-yl]carbonyl}cyclohexyl)benzamide], for which the IC50 was under 10 nM.

Regarding `O=C(N[C@@H]1CCCC[C@@H]1C(=O)N1CC[C@@H]2[C@H](c3ccc(F)cc3)Nc3ccccc3[C@@H]21)c1ccccc1` (relative stereo) [Example 9, N-((1R,2S)-2-{[(3aR*,4R*,9bR*)-4-(4-Fluorophenyl)-2,3,3a,4,5,9b-hexahydro-1H-pyrrolo[3,2-c]quinolin-1-yl]carbonyl}cyclohexyl)benzamide], the IC50 was under 10 nM.

Regarding `O=C(N[C@@H]1CCCC[C@@H]1C(=O)N1CC[C@@H]2[C@H](c3ccco3)Nc3ccccc3[C@@H]21)c1ccccc1` (relative stereo) [Example 15, N-((1R,2S)-2-{[(3aR*,4R*,9bR*)-4-(2-Furyl)-2,3,3a,4,5,9b-hexahydro-1H-pyrrolo[3,2-c]quinolin-1-yl]carbonyl}cyclohexyl)benzamide], the half-inhibitory concentration (IC50) is under 10 nM.

In turn, `O=C(N[C@@H]1CCCC[C@@H]1C(=O)N1CC[C@@H]2[C@H](c3ccoc3)Nc3ccccc3[C@@H]21)c1ccccc1` (relative stereo) [Example 16, N-((1R,2S)-2-{[(3aR*,4R*,9bR*)-4-(3-Furyl)-2,3,3a,4,5,9b-hexahydro-1H-pyrrolo[3,2-c]quinolin-1-yl]carbonyl}cyclohexyl)benzamide] came in with a concentration for half-maximal inhibition (IC50) of under 1 nM.

`O=C(N[C@@H]1CCCC[C@@H]1C(=O)N1CC[C@@H]2[C@H](c3cccs3)Nc3ccccc3[C@@H]21)c1ccccc1` (relative stereo) [Example 17, N-((1R,2S)-2-{[(3aR*,4R*,9bR*)-4-(2-Thienyl)-2,3,3a,4,5,9b-hexahydro-1H-pyrrolo[3,2-c]quinolin-1-yl]carbonyl}cyclohexyl)benzamide] registered an IC50 of under 10 nM.

As to `O=C(N[C@@H]1CCCC[C@@H]1C(=O)N1CC[C@H]2[C@@H](c3ccsc3)Nc3ccccc3[C@H]21)c1ccccc1` (relative stereo) [Example 18, N-((1R,2S)-2-{[(3aS*,4S*,9bS*)-4-(3-Thienyl)-2,3,3a,4,5,9b-hexahydro-1H-pyrrolo[3,2-c]quinolin-1-yl]carbonyl}cyclohexyl)benzamide], the IC50 was under 1 nM.

On to `O=C(N[C@@H]1CCCC[C@@H]1C(=O)N1CC[C@@H]2[C@H](c3ccccn3)Nc3ccccc3[C@@H]21)c1ccccc1` (relative stereo) [Example 19, N-((1R,2S)-2-{[(3aR*,4R*,9bR*)-4-Pyridin-2-yl-2,3,3a,4,5,9b-hexahydro-1H-pyrrolo[3,2-c]quinolin-1-yl]carbonyl}cyclohexyl)benzamide], for which the concentration for half-maximal inhibition (IC50) is under 10 nM.

Take `O=C(N[C@@H]1CCCC[C@@H]1C(=O)N1CC[C@@H]2[C@H](c3cccnc3)Nc3ccccc3[C@@H]21)c1ccccc1` (relative stereo) [Example 20, N-((1R,2S)-2-{[(3aR*,4R*,9bR*)-4-Pyridin-3-yl-2,3,3a,4,5,9b-hexahydro-1H-pyrrolo[3,2-c]quinolin-1-yl]carbonyl}cyclohexyl)benzamide]: the IC50 was under 10 nM.

With `Cn1cccc1[C@@H]1Nc2ccccc2[C@H]2[C@@H]1CCN2C(=O)[C@H]1CCCC[C@H]1NC(=O)c1ccccc1` (relative stereo) [Example 23, N-((1R,2S)-2-{[(3aR*,4R*,9bR*)-4-(1-Methyl-1H-pyrrol-2-yl)-2,3,3a,4,5,9b-hexahydro-1H-pyrrolo[3,2-c]quinolin-1-yl]carbonyl}cyclohexyl)benzamide], the IC50 is under 10 nM.

Consider `O=C(N[C@@H]1CCCC[C@@H]1C(=O)N1CC[C@@H]2[C@H](c3nccs3)Nc3ccccc3[C@@H]21)c1ccccc1` (relative stereo) [Example 25, N-((1R,2S)-2-{[(3aR*,4R*,9bR*)-4-(1,3-Thiazol-2-yl)-2,3,3a,4,5,9b-hexahydro-1H-pyrrolo[3,2-c]quinolin-1-yl]carbonyl}cyclohexyl)benzamide], for which the half-maximal inhibitory concentration (IC50) was under 10 nM.

In the case of `CCC[C@@H]1Nc2ccccc2[C@H]2[C@@H]1CCN2C(=O)[C@H]1CCCC[C@H]1NC(=O)c1ccccc1` (relative stereo) [Example 27, N-((1R,2S)-2-{[(3aR*,4S*,9bR*)-4-Propyl-2,3,3a,4,5,9b-hexahydro-1H-pyrrolo[3,2-c]quinolin-1-yl]carbonyl}cyclohexyl)benzamide], the IC50 is under 10 nM.

In turn, `CC(C)[C@@H]1Nc2ccccc2[C@H]2[C@@H]1CCN2C(=O)[C@H]1CCCC[C@H]1NC(=O)c1ccccc1` (relative stereo) [Example 28, N-((1R,2S)-2-[(3aR*,4S*, 9bR*)-4-Isopropyl-2,3,3a,4,5,9b-hexahydro-1H-pyrrolo[3,2-c]quinolin-1-yl]carbonyl)cyclohexyl)benzamide] yielded a concentration for half-maximal inhibition (IC50) of under 10 nM.

`O=C(N[C@@H]1CCCC[C@@H]1C(=O)N1CC[C@@H]2[C@H](C3CC3)Nc3ccccc3[C@@H]21)c1ccccc1` (relative stereo) [Example 29, N-((1R,2S)-2-{[(3aR*,4S*,9bR*)-4-Cyclopropyl-2,3,3a,4,5,9b-hexahydro-1H-pyrrolo[3,2-c]quinolin-1-yl]carbonyl}cyclohexyl)benzamide] showed a 50% inhibitory concentration (IC50) of under 10 nM.

As for `COC[C@@H]1Nc2ccccc2[C@H]2[C@@H]1CCN2C(=O)[C@H]1CCCC[C@H]1NC(=O)c1ccccc1` (relative stereo) [Example 51, N-((1R,2S)-2-{[(3aR*,4R*,9bR*)-4-(Methoxymethyl)-2,3,3a,4,5,9b-hexahydro-1H-pyrrolo[3,2-c]quinolin-1-yl]carbonyl}cyclohexyl)benzamide], the IC50 was under 10 nM.

As to `O=C(N[C@@H]1CCCC[C@@H]1C(=O)N1CC[C@@H]2[C@H](c3cc[nH]c3)Nc3ccccc3[C@@H]21)c1ccccc1` (relative stereo) [Example 52, N-((1R,2S)-2-{[(3aR*,4R*,9bR*)-4-(1H-Pyrrol-3-yl)-2,3,3a,4,5,9b-hexahydro-1H-pyrrolo[3,2-c]quinolin-1-yl]carbonyl}cyclohexyl)benzamide], the IC50 was under 10 nM.

`CNC[C@@H]1Nc2ccccc2[C@H]2[C@@H]1CCN2C(=O)[C@H]1CCCC[C@H]1NC(=O)c1ccccc1` (relative stereo) [Example 53, N-[(1R,2S)-2-({(3aR*,4R*,9bR*)-4-[(Methylamino)methyl]-2,3,3a,4,5,9b-hexahydro-1H-pyrrolo[3,2-c]quinolin-1-yl}carbonyl)cyclohexyl]benzamide dihydrochloride] displayed an IC50 of under 10 nM.

What is called IC50 is the point on the concentration scale where inhibition reaches its midpoint. Higher therefore signals a need for much substance.
